Laboratory results from US7555415B2, “Methods for the design of estrogen receptor ligands” (Wyeth, priority 2005, dated 2009).

How the values were obtained:
[1] = tested on: Adjuvant Induced Arthritis (AIA); test: Adjuvant Induced Arthritis: daily arthritis severity / paw swelling score; assay type: in vivo, Lewis rats
[2] = tested on: Adjuvant Induced Arthritis (AIA); test: Adjuvant-induced arthritis: histological scoring of synovitis in tarsal joints; assay type: in vivo, Lewis rats; conditions: for Fibroplasia (0-3) / Inflammatory Cells (0-3) / Pannus (0-2) / Synovial Structure (0-3) / Total Synovitis Score (0-10): means ± SD
Experimental: Rats were injected with Complete Freund's Adjuvant (CFA), and synovitis in the tarsal joints was monitored.
(§1) Forty-two male, 8-10 weeks old, Lewis rats were housed according to standard facility operating procedures. They received a standard regimen of food and water ad libitum. Each animal was identified by a cage card indicating the project group and animal number. Each rat number was marked by indelible ink marker on the tail. Freund's Adjuvant-Complete (Sigma Immuno Chemicals, St. Louis, Mo.) was used to induce arthritis. Each mL contained 1 mg Mycobacterium tuberculosis heat killed and dried, 0.85 mL mineral oil and 0.15 mL mannide monooleate (Lot No. 084H8800).
(§2) The rats were injected intradermally with 0.1 mL of Freund's Adjuvant-Complete at the base of the tail. The animals were randomized to […], each group containing six rats. The groups received vehicle (2% Tween 80, 0.5% methylcellulose), or the Compound 2 compound at 1.0 mg/kg, 0.3 mg/kg, or 0.1 mg/kg orally each day. The rats began treatment on Day 8 after adjuvant injection.
(§3) At the end of the study the rats were euthanized with CO2, hindlimbs were removed at necropsy and fixed in 10% buffered formalin, and the tarsal joints were decalcified and embedded in paraffin. Histologic sections were stained with Hemotoxylin and Eosin or Saffranin O-Fast Green stain.
(§4) Slides were coded so that the examiner was blind to the treatment groups. Synovial tissue from tarsal joints were evaluated based on synovial hyperplasia, inflammatory cell infiltration, and pannus formation (see Table 4). Articular cartilage and bone was evaluated using Mankin's histological grading system. Biochemical and metabolic abnormalities in articular cartilage was assessed as from osteoarthritic human hip (see J. Bone Joint Surg (AM) 53A:152-153) (Table 5).

[3] = tested on: Adjuvant Induced Arthritis (AIA); test: Adjuvant-induced arthritis: histological scoring of cartilage changes (Mankin score) in tarsal joints; assay type: in vivo, Lewis rats; conditions: for Cartilage Cells (0-3) / Cartilage Structure (0-6) / Saffranin-O/Fast Green Staining (0-4) / Total Mankin Score (0-14): means ± SD
Experimental: as §1, §2, §3, §4

[4] = tested on: Collagen Induced Arthritis; test: Collagen induced arthritis model (anti-type II collagen mAbs plus LPS): hind paw edema; assay type: in vivo; conditions: BALB/c mice, 2.5 mg/kg orally once daily, over the course of the experiment
Experimental: Compound 2 was evaluated in BALB/c mice, 6-8 weeks of age, in which arthritis was induced by monoclonal antibodies raised against type II collagen, plus lipopolysaccharide (LPS). The animals were administered intravenously with a combination of four different mAbs totaling 4 mg/mouse on day 0, and followed by intravenous administration of […] of LPS 72 hours later (day 3). From day 3, one hour after LPS application, tested compounds were given orally once daily for 15 days. For each animal, an increase in volume of both hind paws was measured using a plethysmometer with water cell (12 mm diameter) on days 0, 5, 7, 10, 14 and 17. Percent inhibition of increase in volume was calculated. Reduction of edema in the hind paws by 30% or more was considered significant.

[5] = target: the molecule itself; test: X-ray crystallography, co-crystals with Compound 1 or Compound 2, two LBD molecules per asymmetric unit
[6] = Compound 2, 0.1 mg/kg orally for 2 weeks from day 8 after CFA
[7] = Compound 2, 0.3 mg/kg orally for 2 weeks from day 8 after CFA
[8] = Compound 2, 1 mg/kg orally for 2 weeks from day 8 after CFA
[9] = all concentrations tested (down to 0.1 mg/kg)

C[C@@H]1c2cc(F)ccc2-c2ccccc2N1S(=O)(=O)c1ccc(O)cc1 [Compound 2, 4-[(8-Fluoro-6-methylphenanthridin-5(6H)-yl)sulfonyl]phenol]
Paw swelling score (maximal score per day 12) ([1]; 0.3 mg/kg (first column so headed, c3) orally each day from Day 8, Day 8): 11.5 | Paw swelling score (maximal score per day 12) ([1]; 0.3 mg/kg (first column so headed, c3) orally each day from Day 8, Day 9): 9.8 | Paw swelling score (maximal score per day 12) ([1]; 0.3 mg/kg (first column so headed, c3) orally each day from Day 8, Day 10): 7.3 | Paw swelling score (maximal score per day 12) ([1]; 0.3 mg/kg (first column so headed, c3) orally each day from Day 8, Day 11): 7 | Paw swelling score (maximal score per day 12) ([1]; 0.3 mg/kg (first column so headed, c3) orally each day from Day 8, Day 12): 6.7 | Paw swelling score (maximal score per day 12) ([1]; 0.3 mg/kg (first column so headed, c3) orally each day from Day 8, Day 13): 3.7 | Paw swelling score (maximal score per day 12) ([1]; 0.3 mg/kg (first column so headed, c3) orally each day from Day 8, Day 14): 3 | Paw swelling score (maximal score per day 12) ([1]; 0.3 mg/kg (first column so headed, c3) orally each day from Day 8, Day 15): 3.7 | Paw swelling score (maximal score per day 12) ([1]; 0.3 mg/kg (first column so headed, c3) orally each day from Day 8, Day 16): 2.3 | Paw swelling score (maximal score per day 12) ([1]; 0.3 mg/kg (first column so headed, c3) orally each day from Day 8, Day 17): 2.3 | Paw swelling score (maximal score per day 12) ([1]; 0.3 mg/kg (first column so headed, c3) orally each day from Day 8, Day 18): 2.3 | Paw swelling score (maximal score per day 12) ([1]; 0.3 mg/kg (first column so headed, c3) orally each day from Day 8, Day 19): 2 | Paw swelling score (maximal score per day 12) ([1]; 0.3 mg/kg (first column so headed, c3) orally each day from Day 8, Day 20): 2 | Paw swelling score (maximal score per day 12) ([1]; 0.3 mg/kg (first column so headed, c3) orally each day from Day 8, Day 21): 1.7 | Paw swelling score (maximal score per day 12) ([1]; 0.3 mg/kg (first column so headed, c3) orally each day from Day 8, Day 22): 1.7 | Paw swelling score (maximal score per day 12) ([1]; 0.3 mg/kg (first column so headed, c3) orally each day from Day 8, Day 23): 1 | Paw swelling score (maximal score per day 12) ([1]; 0.3 mg/kg (first column so headed, c3) orally each day from Day 8, Day 24): 1.3 | Paw swelling score (maximal score per day 12) ([1]; 0.3 mg/kg (second column so headed, c4) orally each day from Day 8, Day 8): 11.3 | Paw swelling score (maximal score per day 12) ([1]; 0.3 mg/kg (second column so headed, c4) orally each day from Day 8, Day 9): 10.7 | Paw swelling score (maximal score per day 12) ([1]; 0.3 mg/kg (second column so headed, c4) orally each day from Day 8, Day 10): 9.3 | Paw swelling score (maximal score per day 12) ([1]; 0.3 mg/kg (second column so headed, c4) orally each day from Day 8, Day 11): 9.7 | Paw swelling score (maximal score per day 12) ([1]; 0.3 mg/kg (second column so headed, c4) orally each day from Day 8, Day 12): 10 | Paw swelling score (maximal score per day 12) ([1]; 0.3 mg/kg (second column so headed, c4) orally each day from Day 8, Day 13): 4.2 | Paw swelling score (maximal score per day 12) ([1]; 0.3 mg/kg (second column so headed, c4) orally each day from Day 8, Day 14): 3.5 | Paw swelling score (maximal score per day 12) ([1]; 0.3 mg/kg (second column so headed, c4) orally each day from Day 8, Day 15): 3.5 | Paw swelling score (maximal score per day 12) ([1]; 0.3 mg/kg (second column so headed, c4) orally each day from Day 8, Day 16): 3.3 | Paw swelling score (maximal score per day 12) ([1]; 0.3 mg/kg (second column so headed, c4) orally each day from Day 8, Day 17): 3.3 | Paw swelling score (maximal score per day 12) ([1]; 0.3 mg/kg (second column so headed, c4) orally each day from Day 8, Day 18): 3.3 | Paw swelling score (maximal score per day 12) ([1]; 0.3 mg/kg (second column so headed, c4) orally each day from Day 8, Day 19): 3 | Paw swelling score (maximal score per day 12) ([1]; 0.3 mg/kg (second column so headed, c4) orally each day from Day 8, Day 20): 2.8 | Paw swelling score (maximal score per day 12) ([1]; 0.3 mg/kg (second column so headed, c4) orally each day from Day 8, Day 21): 2.5 | Paw swelling score (maximal score per day 12) ([1]; 0.3 mg/kg (second column so headed, c4) orally each day from Day 8, Day 22): 2.5 | Paw swelling score (maximal score per day 12) ([1]; 0.3 mg/kg (second column so headed, c4) orally each day from Day 8, Day 23): 1.2 | Paw swelling score (maximal score per day 12) ([1]; 0.3 mg/kg (second column so headed, c4) orally each day from Day 8, Day 24): 1.3 | Paw swelling score (maximal score per day 12) ([1]; 1 mg/kg orally each day from Day 8, Day 8): 11.3 | Paw swelling score (maximal score per day 12) ([1]; 1 mg/kg orally each day from Day 8, Day 9): 8.8 | Paw swelling score (maximal score per day 12) ([1]; 1 mg/kg orally each day from Day 8, Day 10): 7 | Paw swelling score (maximal score per day 12) ([1]; 1 mg/kg orally each day from Day 8, Day 11): 6 | Paw swelling score (maximal score per day 12) ([1]; 1 mg/kg orally each day from Day 8, Day 12): 5 | Paw swelling score (maximal score per day 12) ([1]; 1 mg/kg orally each day from Day 8, Day 13): 1.7 | Paw swelling score (maximal score per day 12) ([1]; 1 mg/kg orally each day from Day 8, Day 14): 1.3 | Paw swelling score (maximal score per day 12) ([1]; 1 mg/kg orally each day from Day 8, Day 15): 1.3 | Paw swelling score (maximal score per day 12) ([1]; 1 mg/kg orally each day from Day 8, Day 16): 1.2 | Paw swelling score (maximal score per day 12) ([1]; 1 mg/kg orally each day from Day 8, Day 17): 1.2 | Paw swelling score (maximal score per day 12) ([1]; 1 mg/kg orally each day from Day 8, Day 18): 1.2 | Paw swelling score (maximal score per day 12) ([1]; 1 mg/kg orally each day from Day 8, Day 19): 1.2 | Paw swelling score (maximal score per day 12) ([1]; 1 mg/kg orally each day from Day 8, Day 20): 1.2 | Paw swelling score (maximal score per day 12) ([1]; 1 mg/kg orally each day from Day 8, Day 21): 1.2 | Paw swelling score (maximal score per day 12) ([1]; 1 mg/kg orally each day from Day 8, Day 22): 1.2 | Paw swelling score (maximal score per day 12) ([1]; 1 mg/kg orally each day from Day 8, Day 23): 1 | Paw swelling score (maximal score per day 12) ([1]; 1 mg/kg orally each day from Day 8, Day 24): 0.8 | Paw swelling and redness (joint scores) ([1]; following treatment, there appeared to be a dose response): Decreases | Fibroplasia (0-3) [2, 6]: 1.75 ± 0.42 | Inflammatory Cells (0-3) [2, 6]: 1.83 ± 0.52 | Pannus (0-2) [2, 6]: 1.50 ± 0.84 | Synovial Structure (0-3) [2, 6]: 2.33 ± 0.75 | Total Synovitis Score (0-10) [2, 6]: 7.42 ± 2.25 | Fibroplasia (0-3) [2, 7]: 1.67 ± 0.26*t | Inflammatory Cells (0-3) [2, 7]: 1.25 ± 0.27 | Pannus (0-2) [2, 7]: 0.50 ± 0.84 | Synovial Structure (0-3) [2, 7]: 1.58 ± 0.38 | Total Synovitis Score (0-10) [2, 7]: 5.00 ± 1.30*#t | Fibroplasia (0-3) [2, 8]: 1.33 ± 0.41*t | Inflammatory Cells (0-3) [2, 8]: 1.17 ± 0.26 | Pannus (0-2) [2, 8]: 0.25 ± 0.42 | Synovial Structure (0-3) [2, 8]: 1.42 ± 0.38 | Total Synovitis Score (0-10) [2, 8]: 4.17 ± 1.21*#t | Overall synovitis score [2, 9]: significantly improved | Tidemark Integrity (0-1) [3, 6]: 0 | Cartilage Cells (0-3) [3, 6]: 1.92 ± 0.21 | Cartilage Structure (0-6) [3, 6]: 2.33 ± 0.68 | Saffranin-O/Fast Green Staining (0-4) [3, 6]: 2.42 ± 0.67 | Total Mankin Score (0-14) [3, 6]: 6.83 ± 1.25 | Tidemark Integrity (0-1) [3, 7]: 0 | Cartilage Cells (0-3) [3, 7]: 1.50 ± 0.32 | Cartilage Structure (0-6) [3, 7]: 1.75 ± 0.42 | Saffranin-O/Fast Green Staining (0-4) [3, 7]: 2.17 ± 0.26 | Total Mankin Score (0-14) [3, 7]: 5.42 ± 0.74*t | Tidemark Integrity (0-1) [3, 8]: 0 | Cartilage Cells (0-3) [3, 8]: 1.17 ± 0.26*t | Cartilage Structure (0-6) [3, 8]: 1.25 ± 0.27 | Saffranin-O/Fast Green Staining (0-4) [3, 8]: 2.17 ± 0.26 | Total Mankin Score (0-14) [3, 8]: 4.58 ± 0.74*t | Overall cartilage score [3, 9]: significantly improved | Inhibition of paw edema [4]: > 30%

B1: human estrogen receptor alpha ligand binding domain (ERalpha-LBD), carboxymethylated (receptor)
chain: SKKNSLALSLTADQMVSALLDAEPPILYSEYDPTRPFSEASMMGLLTNLADRELVHMINWAKRVPGFVDLTLHDQVHLLECAWLEILMIGLVWRSMEHPVKLLFAPNLLLDRNQGKCVEGMVEIFDMLLATSSRFRMMNLQGEEFVCLKSIILLNSGVYTFLSSTLKSLEEKDHIHRVLDKITDTLIHLMAKAGLTLQQQHQRLAQLLLILSHIRHMSNKGMEHLYSMKCKNVVPLYDLLLEMLDAHRLHAPTS
modifications: carboxymethylated with 5 mM iodoacetic acid while bound to the estradiol-affinity column; modified residues not stated
notes: also called human ERalpha-LBD; ERalpha-LBD (301-554)
binding result [5]: binds
